Measurements: US5731343A (The Scripps Research Institute, priority 1995, dated 1998)
Where two headings read alike, the source gives them in different places.

Experiments:
[1] = molecular target: p60^c-src (Homo sapiens, UniProt P12931)
[2] = test system: p60^v-src; details: cited from earlier work
[3] = test system: tumor cells; details: U.S. Pat. Nos. 3,428,526 and 4,228,079; cited from earlier work
[4] = test system: COX-2 mRNA; assay: cells; details: Rattus norvegicus, Macrophage, 2 h, read-out: inhibition of COX-2 mRNA levels
[5] = test system: mitogen activated protein kinases (MAPK-1, MAPK-2 and p38); details: 4 hours pretreatment; LPS (1 μg/ml); RAW 264.7
[6] = molecular target: T1, endogenous COX (Rattus norvegicus, UniProt Q63921); assay: Inactivation of endogenous COX activity in macrophages by aspirin; assay type: cell-based; details: aspirin 500 μM, 2.5 hours
T1 construct: endogenous in cells; host or cells: alveolar macrophages of Sprague-Dawley rats (bronchoalveolar lavage)
T1 sequence (Q63921 27-602): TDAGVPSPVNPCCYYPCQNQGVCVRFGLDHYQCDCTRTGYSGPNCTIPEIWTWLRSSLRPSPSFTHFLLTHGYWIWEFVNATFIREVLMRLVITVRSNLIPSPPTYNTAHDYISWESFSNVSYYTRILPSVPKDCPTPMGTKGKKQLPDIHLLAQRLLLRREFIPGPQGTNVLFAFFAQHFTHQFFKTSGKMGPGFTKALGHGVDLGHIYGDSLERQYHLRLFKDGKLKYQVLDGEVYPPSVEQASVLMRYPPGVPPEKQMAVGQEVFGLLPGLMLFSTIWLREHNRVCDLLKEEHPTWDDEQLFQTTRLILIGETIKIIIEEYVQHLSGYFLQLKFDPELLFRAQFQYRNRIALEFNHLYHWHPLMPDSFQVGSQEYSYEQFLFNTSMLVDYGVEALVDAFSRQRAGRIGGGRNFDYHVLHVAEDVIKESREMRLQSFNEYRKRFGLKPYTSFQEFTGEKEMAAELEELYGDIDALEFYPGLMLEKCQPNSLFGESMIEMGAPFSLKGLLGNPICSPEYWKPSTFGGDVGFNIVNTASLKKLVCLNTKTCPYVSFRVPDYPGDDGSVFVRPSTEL
Text: In the previous study using the same cell type, it was shown that increased COX activity in LPS-stimulated macrophages which were pretreated with aspirin, results from selective expression of COX-2 (Lee, et al., supra). Therefore, de novo synthesized COX-2 in aspirin-pretreated macrophages can be accurately and conveniently quantitated by measuring recovered COX activity.

[7] = test system: cyclooxygenase; details: intact macrophages; Glaser et al. 1993; cited from earlier work
[8] = test system: COX-2; assay: Recovery of COX activity (COX-2 expression) in aspirin-pretreated rat alveolar macrophages; assay type: cell-based; details: read-out: IC50 suppression of LPS-induced expression of COX-2
[9] = test system: murine resident peritoneal macrophages; details: stimulated with zymosan, calcium ionophore A23187, and PMA; Glaser et al.; cited from earlier work
[10] = test system: c-raf; details: human T cells; June et al. 1990; cited from earlier work
[11] = test system: tyrosine phosphorylated proteins (Src family tyrosine kinases); assay: Antiphosphotyrosine immunoblotting of LPS-stimulated macrophages; assay type: cell-based; details: 4 hours pretreatment; LPS (10 μg/ml); rat alveolar macrophages
[12] = test system: RAW 264.7; details: Weinstein et al., cited from earlier work
[13] = test system: p53/56^lyn; assay: Western blot analysis of p53/56^lyn in LPS-stimulated macrophages; assay type: cell-based, rat; details: 4 hours pretreatment; LPS (10 μg/ml)
[14] = test system: p60^v-src; details: Uehara et al. 1989; cited from earlier work

p60^c-src, sequence (P12931 whole entry): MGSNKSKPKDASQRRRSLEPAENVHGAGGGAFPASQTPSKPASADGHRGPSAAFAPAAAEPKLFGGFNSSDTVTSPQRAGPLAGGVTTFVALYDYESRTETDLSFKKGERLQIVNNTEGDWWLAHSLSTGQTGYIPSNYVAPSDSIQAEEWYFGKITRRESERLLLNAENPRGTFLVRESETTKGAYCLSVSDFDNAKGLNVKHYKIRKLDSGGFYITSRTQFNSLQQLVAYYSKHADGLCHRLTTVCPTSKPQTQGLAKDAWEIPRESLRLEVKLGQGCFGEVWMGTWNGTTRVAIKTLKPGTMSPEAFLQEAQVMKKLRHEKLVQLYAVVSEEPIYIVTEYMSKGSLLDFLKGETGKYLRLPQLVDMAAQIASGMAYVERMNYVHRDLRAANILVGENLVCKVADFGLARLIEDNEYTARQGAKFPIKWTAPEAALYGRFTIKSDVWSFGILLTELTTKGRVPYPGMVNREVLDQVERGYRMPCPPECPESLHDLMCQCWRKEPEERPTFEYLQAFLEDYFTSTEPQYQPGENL

## C[C@@H]1C[C@H]2O[C@@H]2/C=C\C=C\C(=O)Cc2c(Cl)c(O)cc(O)c2C(=O)O1 [Radicicol, 5-chloro-6-(7,8-epoxy-10-hydroxy-2-oxo-3,5-undecadienyl)-β-resorcyclic acid μ-lactone]
[1]
  IC50: 8.2 µM
[2]; Kwon et al. 1992
  inhibition of p60^v-src: inhibitor of p60^v-src
[3]
  inhibitory effect in vitro on the growth of tumor cells: strong inhibitory effect
[4]
  inhibition at 1 µg/mL: 50%
[5]
  inhibition of tyrosine phosphorylation of MAPKs: inhibited tyrosine phosphorylation of MAPKs in a dose dependent fashion

## CC(=O)Oc1ccccc1C(=O)O [aspirin]
[6]
  inhibition at 500 µM: > 90%

## O=c1c(-c2ccc(O)cc2)coc2cc(O)cc(O)c12 [genistein]
[7]
  inhibitory effect on cyclooxygenase activity: no inhibitory effect
[8]
  IC50: 22 µM
[9]
  PGE2 production: inhibited

## CO[C@H]1[C@@H](OC)C[C@H](C)[C@@H](OC)C2=CC(=O)C=C(NC(=O)/C(C)=C/C=C\[C@H](OC)[C@@H](OC(N)=O)/C(C)=C/[C@@H]1C)C2=O [herbimycin A]
[10]
  PMA-stimulated c-raf activity: resistant to the inhibitory effects
[11]
  levels of tyrosine phosphorylated proteins: suppressed levels of tyrosine phosphorylated proteins
[12]; LPS
  LPS-induced release of [^3 H]-arachidonic acid metabolites: dramatically inhibits
[12]; PMA
  PMA-induced release of [^3 H]-arachidonic acid metabolites: only weakly inhibits
[13]
  levels of p53/56^lyn: significant reduction levels of p53/56^lyn
[2]; Uehara et al. 1989, read-out: IC50 in vitro kinase activity
  IC50: 12 µM
[2]; sulfhydryl compounds
  inhibitory effect on p60^v-src kinase activity in presence of sulfhydryl compounds: abolished
[8]
  IC50: 0.052 µM
[14]
  degradation of p60^v-src: increased the degradation

## N#CC(=Cc1ccc(O)c(O)c1)C(=O)Nc1ccccc1 [tryphostin (AG-494)]
[8]; LPS
  IC50: 357 µM

## N#CC(C#N)=Cc1cc(O)c(O)c(O)c1 [tyrphostin-25]
[7]
  inhibitory effect on cyclooxygenase activity: no inhibitory effect
[9]
  PGE2 production: inhibited
